In patent US6855728B2, “Small-molecule modulators of hepatocyte growth factor / scatter factor activities” (North Shore-Long Island Jewish Health System, priority 2001, dated 2005):

Experiments:
[1] = test system: Endothelial cells (HUVECs); test: Endothelial cell (HUVEC) proliferation assay, 3H thymidine incorporation, compound without added growth factor; format: cell-based, human; details: for Activity at 2 microgram/ml Without HGF/SF: stimulation: stimulation of HUVEC proliferation; for inhibition at 6 µg/mL / Activity at 6 microgram/ml Without HGF/SF (result in words): 6 microgram/ml; for inhibition at 6 µg/mL: inhibition of HUVEC proliferation
Experimental: Cell proliferation assays Endothelial cells (HUVECs) were seeded in 48 well plates at a density of 10,000 to 20,000 cells per well in the normal growth medium (EGM-2-Clonetics) containing 2% fetal bovine serum, FGF, VEGF, IGF, ascorbic acid, EGF, GA, heparin and hydrocortisone. The cells were grown normally in the growth medium for 24 hr at 37 degrees C. and 5% CO2. The cells were then rinsed with RPMI-1% BSA and starved for 1-2 hrs. The stock solutions of all the compounds were made at a concentration of 10 mg/ml in DMSO and diluted in RPMI-1% BSA at a final concentrations of 1 to 12 microgram/ml. The cells were then washed and treated with the compounds and incubated for another 24 hr at 37 degrees C. Then ^3H thymidine (0.5 microgram/ml in RPMI-BSA) was added to the cells and incubated at 37 degrees C. for 4 to 5 hours. The unincorporated thymidine was removed by washing the cells four times with 1× PBS. Then the cells were lysed with 0.5M NaOH for 30 min and the radioactivity counted in the beta counter. […]

[2] = test system: HGF/SF induced proliferation of HUVEC; test: Endothelial cell (HUVEC) proliferation assay in the presence of exogenously-added HGF/SF; format: cell-based, human; details: with HGF/SF; for Stimulation at 6-12 micrograms/ml With: stimulation of endothelial cell proliferation; for inhibition at 2 µg/mL: read-out: Activity at 2 microgram/ml With HGF/SF: inhibition (blocked SF); for inhibition at 6 µg/mL: read-out: Activity at 6 microgram/ml With HGF/SF: inhibition (blocked SF)
Text: To evaluate inhibitors of activity, compounds may be evaluated directly for anti-proliferative activities, such as the inhibition of cellular proliferation, inhibition of tumor growth, inhibition of scatter, and inhibition of gene expression, and may also be evaluated on their ability to inhibit activity when exposed to cells together with. In such instances, the scatter and/or proliferative activities induced by added will be inhibited by the attendant presence of an inhibitory compound of the invention.
Cell proliferation assays Endothelial cells (HUVECs) were seeded in 48 well plates at a density of 10,000 to 20,000 cells per well in the normal growth medium (EGM-2-Clonetics) containing 2% fetal bovine serum, FGF, VEGF, IGF, ascorbic acid, EGF, GA, heparin and hydrocortisone. The cells were grown normally in the growth medium for 24 hr at 37 degrees C. and 5% CO2. The cells were then rinsed with RPMI-1% BSA and starved for 1-2 hrs. The stock solutions of all the compounds were made at a concentration of 10 mg/ml in DMSO and diluted in RPMI-1% BSA at a final concentrations of 1 to 12 microgram/ml. The cells were then washed and treated with the compounds and incubated for another 24 hr at 37 degrees C. Then ^3H thymidine (0.5 microgram/ml in RPMI-BSA) was added to the cells and incubated at 37 degrees C. for 4 to 5 hours. The unincorporated thymidine was removed by washing the cells four times with 1× PBS. Then the cells were lysed with 0.5M NaOH for 30 min and the radioactivity counted in the beta counter.

[3] = 6-12 micrograms/ml, without HGF/SF
[4] = 6-12 micrograms/ml, inhibition of endothelial cell proliferation
[5] = 6-12 micrograms/ml, without HGF/SF, stimulation of endothelial cell proliferation
[6] = Homo sapiens, 2 microgram/ml, inhibition of HUVEC proliferation
[7] = Homo sapiens, 6 microgram/ml, inhibition of HUVEC proliferation

## Cc1cc(C)cc(Sc2ccc3nnc(-c4ccccc4)n3n2)c1 [6-(3,5-Dimethylphenyl) Thio)-3-Phenyl (1,2,4-Triazolo(4,3-b)pyridazine]
[1]; without HGF/SF
  Activity at 1 ug/ml concentration Without HGF/SF (result in words): no significant effect
[2]; Homo sapiens, HUVEC, 1 ug/ml, inhibition of endothelial cell proliferation, read-out: Activity at 1 ug/ml concentration With HGF/SF: inhibition
  inhibition at 1 µg/mL: 30%

## C(=C1CCCc2c(-c3ccccc3)cc(-c3ccccc3)pc21)c1ccccc1 (stereo not drawn) [8-Benzyledene-2,4 Diphenyl-5,6,7,8 Tetrahydrophosphinoline]
[1]; without HGF/SF
  Activity at 1 ug/ml concentration Without HGF/SF (result in words): no significant effect
[2]; 1 ug/ml, inhibition of endothelial cell proliferation
  Activity at 1 ug/ml concentration With HGF/SF: inhibition: 40% inhibition

## c1ccc2c(c1)cc(-c1cc3ccccc3c3ccccc13)c1ccccc12 [9,9-Biphenanthrene]
[1]; [3]
  Stimulation/Inhibition at 6-12 micrograms/ml Without HGF/SF (result in words): No effect
[2]; [4]
  Inhibition at 6-12 micrograms/ml With: 20-40% inhibition

## C(=C1c2ccccc2-c2ccccc2-c2ccccc21)c1ccc(-c2ccccc2)cc1 [9-biphenyl-4-ylmethylene-9H-tri-benzo(A,C,E)-cycloheptene]
[1]; [5]
  Stimulation at 6-12 micrograms/ml Without HGF/SF: 30-40% stimulation
[2]; 6-12 micrograms/ml
  Stimulation at 6-12 micrograms/ml With: 20-30% stimulation

## CC(=O)C1=C(C)C[C@H]2[C@@H]3CC=C4C[C@@H](O)CC[C@]4(C)[C@H]3CC[C@]12C [16 methyl-16 Dehydropregnenolone]
[1]; [3]
  Stimulation/Inhibition at 6-12 micrograms/ml Without HGF/SF (result in words): No effect
[2]; 6-12 micrograms/ml
  Stimulation at 6-12 micrograms/ml With: 30% stimulation

## C[Si](C)(C)c1cccc(-c2ccccc2)c1 [(3-Biphenyl) Trimethyl silane]
[1]; [5]
  Stimulation at 6-12 micrograms/ml Without HGF/SF: 40% stimulation
[2]; 6-12 micrograms/ml
  Stimulation/Inhibition at 6-12 micrograms/ml With (result in words): No effect

## Cc1nn(C(=O)c2ccc(Cl)cc2)c(C)c1Cc1c(F)cccc1Cl [(4-(2-chloro-6-fluorobenzyl)-3,5-dimethyl-1H-pyrazol-1-yl)(4-chlorophenyl)methanone]
[1]; without HGF/SF
  Activity at 2 microgram/ml Without HGF/SF: stimulation: 40%
[1]; Homo sapiens, HUVEC, 24 h, 5 microg/ml, stimulation of endothelial cell proliferation
  activation at 5 µg/mL: 41%
[1]; Homo sapiens, HUVEC, 24 h, 10 microg/ml, stimulation of endothelial cell proliferation
  activation at 10 µg/mL: 35%
[1]; Homo sapiens, without HGF/SF
  inhibition at 6 µg/mL: 50%
[2]; [6]
  inhibition at 2 µg/mL: 30%
[2]; [7]
  inhibition at 6 µg/mL: 90%

## Cc1nn(C(=O)c2c(Cl)cccc2Cl)c(C)c1Cc1c(F)cccc1Cl [(4-(2-chloro-6-fluorobenzyl)-3,5-dimethyl-1H-pyrazole-1-yl)(2,6-dichlorophenyl)methanone]
[1]; without HGF/SF
  Activity at 2 microgram/ml Without HGF/SF (result in words): not significant
  Activity at 6 microgram/ml Without HGF/SF (result in words): not significant
[2]; [6]
  inhibition at 2 µg/mL: 23%
[2]; [7]
  inhibition at 6 µg/mL: 90%

## Cc1nn(C(=O)c2cccs2)c(C)c1Cc1c(F)cccc1Cl [(4-(2-chloro-6-fluorobenzyl)-3,5-dimethyl-1H-pyrazole-1-yl)(2-thienyl)methanone]
[1]; without HGF/SF
  Activity at 2 microgram/ml Without HGF/SF (result in words): No effect
  Activity at 6 microgram/ml Without HGF/SF (result in words): No effect
[2]; 2 microgram/ml
  Activity at 2 microgram/ml With HGF/SF (result in words): No effect
[2]; [7]
  inhibition at 6 µg/mL: 61%

## Cc1nn(-c2onc(-c3c(Cl)cccc3Cl)c2C(=O)NN)c(C)c1Br [(4-bromo-3,5-dimethyl-1H-pyrazol-1-yl)(3-(2,6-dichlorophenyl)isoxazole-4-carbohydrazide)]
[1]; without HGF/SF
  Activity at 2 microgram/ml Without HGF/SF: stimulation: 74%
[2]; 2 microgram/ml
  Activity at 2 microgram/ml With HGF/SF (result in words): No effect
[2]; 6 microgram/ml
  Activity at 6 microgram/ml With HGF/SF (result in words): No effect

## CSC(=NS(=O)(=O)c1ccccc1)NNC(=O)c1c(-c2c(Cl)cccc2Cl)noc1C [N1-((2-((3-(2,6-dichlorophenyl)-5-methylisoxazol-4-yl)carbonyl)hydrazino)(methylthio)methylidene)benzene-1-sulfonamide]
[1]; without HGF/SF
  Activity at 2 microgram/ml Without HGF/SF (result in words): No effect
  Activity at 6 microgram/ml Without HGF/SF (result in words): No effect
[2]; 2 microgram/ml
  Activity at 2 microgram/ml With HGF/SF (result in words): No effect
[2]; [7]
  inhibition at 6 µg/mL: 25%

## Cc1onc(-c2c(Cl)cccc2Cl)c1C(=O)NN1CCCCCC1 [N4-azepan-1-yl-3-(2,6-dichlorophenyl)-5-methylisoxazole-4-carboxamide]
[1]; without HGF/SF
  Activity at 2 microgram/ml Without HGF/SF (result in words): No effect
[1]; Homo sapiens, without HGF/SF
  inhibition at 6 µg/mL: 50%
[2]; 2 microgram/ml
  Activity at 2 microgram/ml With HGF/SF (result in words): No effect
[2]; [7]
  inhibition at 6 µg/mL: 50%

## Cc1ccc(N=Cc2ccco2)c(C)c1 [N-(furfurylidene)-2,4-xylidine]
[1]; 6-12 micrograms/ml, without HGF/SF, inhibition of endothelial cell proliferation
  Inhibition at 6-12 micrograms/ml Without HGF/SF: 30-40% inhibition
[2]; [4]
  Inhibition at 6-12 micrograms/ml With: 50-60% inhibition

## Cc1onc(-c2c(Cl)cccc2Cl)c1C(=O)NNc1c(Cl)cccc1Cl [N′4,3-di(2,6-dichlorophenyl)-5-methylisoxazole-4-carbohydrazide]
[1]; without HGF/SF
  Activity at 2 microgram/ml Without HGF/SF (result in words): No effect
[1]; Homo sapiens, without HGF/SF
  inhibition at 6 µg/mL: 30%
[2]; 2 microgram/ml
  Activity at 2 microgram/ml With HGF/SF (result in words): not significant
[2]; [7]
  inhibition at 6 µg/mL: 60%

## Cc1onc(-c2c(Cl)cccc2Cl)c1C(=O)NN(C)c1ccc([N+](=O)[O-])cn1 [N′4,5-dimethyl-N′4-(5-nitro-2-pyridyl)-3-(2,6-dichlorophenyl)isoxazole-4-carbohydrazide]
[1]; without HGF/SF
  Activity at 2 microgram/ml Without HGF/SF (result in words): No effect
  Activity at 6 microgram/ml Without HGF/SF (result in words): No effect
[2]; 2 microgram/ml
  Activity at 2 microgram/ml With HGF/SF (result in words): No effect
[2]; [7]
  inhibition at 6 µg/mL: 43%

## Cc1onc(-c2c(Cl)cccc2Cl)c1C(=O)NN(C)C [N′4,N′4,5-trimethyl-3-(2,6-dichlorophenyl)isoxazole-4-carbohydrazide]
[1]; without HGF/SF
  Activity at 2 microgram/ml Without HGF/SF (result in words): No effect
  Activity at 6 microgram/ml Without HGF/SF (result in words): No effect
[2]; 2 microgram/ml
  Activity at 2 microgram/ml With HGF/SF (result in words): No effect
[2]; [7]
  inhibition at 6 µg/mL: 40%

## Cc1onc(-c2c(Cl)cccc2Cl)c1C(=O)NNc1c(Cl)cc(Cl)cc1Cl [N′4-(2,4,6-trichlorophenyl)-3-3(2,6-dichlorophenyl)-5-methylisoxazole-4-carbohydrazide]
[1]; without HGF/SF
  Activity at 2 microgram/ml Without HGF/SF (result in words): No effect
  Activity at 6 microgram/ml Without HGF/SF (result in words): No effect
[2]; 2 microgram/ml
  Activity at 2 microgram/ml With HGF/SF (result in words): No effect
[2]; 6 microgram/ml, inhibition of HUVEC proliferation
  Activity at 6 microgram/ml With HGF/SF: inhibition (blocked SF): 60%

## Cc1onc(-c2c(Cl)cccc2Cl)c1C(=O)NNC(=O)CON=Cc1ccc(Cl)cc1Cl [N′4-(2-(((2,4-dichlorobenzylidene)amino)oxy)acetyl)-3-(2,6-dichlorophenyl)-5-methylisoxazole-4-carbohydrazide]
[1]; without HGF/SF
  Activity at 2 microgram/ml Without HGF/SF: stimulation: 32%
  Activity at 6 microgram/ml Without HGF/SF (result in words): No effect
[2]; 2 microgram/ml, stimulation of HUVEC proliferation
  Activity at 2 microgram/ml With HGF/SF: stimulation: 30%
[2]; 6 microgram/ml
  Activity at 6 microgram/ml With HGF/SF (result in words): No effect

## CCOC(CC(=O)NNC(=O)c1c(-c2c(Cl)cccc2Cl)noc1C)OCC [N′4-(3,3-diethoxypropanoyl)-3-(2,6-dichlorophenyl)-5-methylisoxazole-4-carbohydrazide]
[1]; without HGF/SF
  Activity at 2 microgram/ml Without HGF/SF (result in words): No effect
  Activity at 6 microgram/ml Without HGF/SF (result in words): No effect
[2]; 2 microgram/ml
  Activity at 2 microgram/ml With HGF/SF (result in words): No effect
[2]; [7]
  inhibition at 6 µg/mL: 35%
